{"source": "paper PMC3089805", "about": "(Chemmedchem, 2010)", "note": "Marks after values point to notes of the source that are not given here."}
{"test_system": "H. pylori strain 26695", "assay": "MIC determination, liquid microdilution, H. pylori", "assay_type": "cell-based", "details": "Helicobacter pylori, 26695, 27 h, read-out: MIC H. pylori", "units": {"MIC": "µM"}}
{"smiles": "O=C(Nc1ncc([N+](=O)[O-])s1)c1ccsc1", "note": "[Analogue 74, N-(5-Nitrothiazol-2-yl)thiophene-3-carboxamide]", "MIC": 0.7}
{"smiles": "O=C(Nc1ncc([N+](=O)[O-])s1)c1cc(C(F)(F)F)cc(C(F)(F)F)c1", "note": "[Analogue 38, N-(5-Nitrothiazol-2-yl)-3,5-bis(trifluoromethyl)benzamide]", "MIC": 5.2}
{"smiles": "CC(=O)Oc1ccccc1C(=O)Nc1ncc([N+](=O)[O-])s1", "note": "[Nitazoxanide, reference compound]", "MIC": 13}
{"smiles": "O=C(Nc1ncc([N+](=O)[O-])s1)c1ccc(Cl)c(C(F)(F)F)c1", "note": "[Analogue 41, 4-Chloro-N-(5-nitrothiazol-2-yl)-3-(trifluoromethyl)benzamide]", "MIC": 2.8}
{"smiles": "O=C(Nc1ncc([N+](=O)[O-])s1)c1ccco1", "note": "[Analogue 61, N-(5-Nitrothiazol-2-yl)furan-2-carboxamide]", "MIC": 1}
{"smiles": "O=C(Nc1ncc([N+](=O)[O-])s1)c1cccc(C(F)(F)F)c1", "note": "[Analogue 23, N-(5-Nitrothiazol-2-yl)-3-(trifluoromethyl)benzamide]", "MIC": 3.5}
{"test_system": "C. difficile VPI 10463", "assay": "MIC determination, agar dilution, C. difficile", "assay_type": "cell-based, Clostridium difficile", "details": "Clostridioides difficile, VPI10463, 18 h, read-out: MIC C. difficile", "units": {"MIC": "µM"}}
{"smiles": "O=C(Nc1ncc([N+](=O)[O-])s1)c1ccsc1", "note": "[Analogue 74, N-(5-Nitrothiazol-2-yl)thiophene-3-carboxamide]", "MIC": 2.9}
{"smiles": "CC(=O)Oc1ccccc1C(=O)Nc1ncc([N+](=O)[O-])s1", "note": "[Nitazoxanide, reference compound]", "MIC": 1.2}
{"smiles": "O=C(Nc1ncc([N+](=O)[O-])s1)c1ccc(Cl)c(C(F)(F)F)c1", "note": "[Analogue 41, 4-Chloro-N-(5-nitrothiazol-2-yl)-3-(trifluoromethyl)benzamide]", "MIC": 1.4}
{"smiles": "O=C(Nc1ncc([N+](=O)[O-])s1)c1ccco1", "note": "[Analogue 61, N-(5-Nitrothiazol-2-yl)furan-2-carboxamide]", "MIC": 2.4}
{"smiles": "O=C(Nc1ncc([N+](=O)[O-])s1)c1cccc(C(F)(F)F)c1", "note": "[Analogue 23, N-(5-Nitrothiazol-2-yl)-3-(trifluoromethyl)benzamide]", "MIC": 0.5}
{"test_system": "S. aureus (MRSA)", "assay": "MIC determination, liquid microdilution, S. aureus", "assay_type": "cell-based", "details": "Staphylococcus aureus, read-out: MIC S. aureus (MRSA)", "units": {"MIC": "µM"}}
{"smiles": "O=C(Nc1ncc([N+](=O)[O-])s1)c1ccsc1", "note": "[Analogue 74, N-(5-Nitrothiazol-2-yl)thiophene-3-carboxamide]", "MIC": 23.5}
{"smiles": "O=C(Nc1ncc([N+](=O)[O-])s1)c1cc(C(F)(F)F)cc(C(F)(F)F)c1", "note": "[Analogue 38, N-(5-Nitrothiazol-2-yl)-3,5-bis(trifluoromethyl)benzamide]", "MIC": 2.6}
{"smiles": "CC(=O)Oc1ccccc1C(=O)Nc1ncc([N+](=O)[O-])s1", "note": "[Nitazoxanide, reference compound]", "MIC": 39.1}
{"smiles": "O=C(Nc1ncc([N+](=O)[O-])s1)c1ccc(Cl)c(C(F)(F)F)c1", "note": "[Analogue 41, 4-Chloro-N-(5-nitrothiazol-2-yl)-3-(trifluoromethyl)benzamide]", "MIC": 2.8}
{"smiles": "O=C(Nc1ncc([N+](=O)[O-])s1)c1ccco1", "note": "[Analogue 61, N-(5-Nitrothiazol-2-yl)furan-2-carboxamide]", "MIC": 50.2}
{"test_system": "C. jejuni strain H840", "assay": "MIC determination, liquid microdilution, C. jejuni", "assay_type": "cell-based", "details": "Campylobacter jejuni, H840, 27 h, read-out: MIC C. jejuni", "units": {"MIC": "µM"}}
{"smiles": "O=C(Nc1ncc([N+](=O)[O-])s1)c1ccsc1", "note": "[Analogue 74, N-(5-Nitrothiazol-2-yl)thiophene-3-carboxamide]", "MIC": 5.9}
{"smiles": "O=C(Nc1ncc([N+](=O)[O-])s1)c1cc(C(F)(F)F)cc(C(F)(F)F)c1", "note": "[Analogue 38, N-(5-Nitrothiazol-2-yl)-3,5-bis(trifluoromethyl)benzamide]", "MIC": 41.5}
{"smiles": "CC(=O)Oc1ccccc1C(=O)Nc1ncc([N+](=O)[O-])s1", "note": "[Nitazoxanide, reference compound]", "MIC": 39.1}
{"smiles": "O=C(Nc1ncc([N+](=O)[O-])s1)c1ccc(Cl)c(C(F)(F)F)c1", "note": "[Analogue 41, 4-Chloro-N-(5-nitrothiazol-2-yl)-3-(trifluoromethyl)benzamide]", "MIC": 2.8}
{"smiles": "O=C(Nc1ncc([N+](=O)[O-])s1)c1ccco1", "note": "[Analogue 61, N-(5-Nitrothiazol-2-yl)furan-2-carboxamide]", "MIC": 8.4}
{"smiles": "O=C(Nc1ncc([N+](=O)[O-])s1)c1cccc(C(F)(F)F)c1", "note": "[Analogue 23, N-(5-Nitrothiazol-2-yl)-3-(trifluoromethyl)benzamide]", "MIC": 4.7}
{"test_system": "H. pylori PFOR enzyme", "assay": "Direct PFOR enzyme assay", "assay_type": "biochemical", "details": "[Drug] = 40 μM"}
{"smiles": "O=C(Nc1ncc([N+](=O)[O-])s1)c1ccsc1", "note": "[Analogue 74, N-(5-Nitrothiazol-2-yl)thiophene-3-carboxamide]", "PFOR Inhibition": "58.5 ± 3.5 ^b %"}
{"smiles": "O=C(Nc1ncc([N+](=O)[O-])s1)c1ccc(Cl)c(C(F)(F)F)c1", "note": "[Analogue 41, 4-Chloro-N-(5-nitrothiazol-2-yl)-3-(trifluoromethyl)benzamide]", "PFOR Inhibition": "33 ± 1%"}
{"smiles": "O=C(Nc1ncc([N+](=O)[O-])s1)c1ccco1", "note": "[Analogue 61, N-(5-Nitrothiazol-2-yl)furan-2-carboxamide]", "PFOR Inhibition": "42 ^b %"}
{"smiles": "O=C(Nc1ncc([N+](=O)[O-])s1)c1cccc(C(F)(F)F)c1", "note": "[Analogue 23, N-(5-Nitrothiazol-2-yl)-3-(trifluoromethyl)benzamide]", "PFOR Inhibition": "41.5 ± 5.5%"}
{"test_system": "H. pylori PFOR enzyme", "assay": "Direct PFOR enzyme assay", "assay_type": "biochemical", "details": "[Drug] = 40 μM; listed as 1, 40 µM", "units": {"PFOR Inhibition": "%"}}
{"smiles": "CC(=O)Oc1ccccc1C(=O)Nc1ncc([N+](=O)[O-])s1", "note": "[Nitazoxanide, reference compound]", "PFOR Inhibition": "54 ± 7"}
{"test_system": "H. pylori PFOR enzyme", "assay": "Direct PFOR enzyme assay", "assay_type": "biochemical", "details": "[Drug] = 40 μM; listed as NTZ, 40 µM"}
{"smiles": "CC(=O)Oc1ccccc1C(=O)Nc1ncc([N+](=O)[O-])s1", "note": "[Nitazoxanide, reference compound]", "PFOR Inhibition": "[c] For PFOR inhibition assays, drug concentration was fixed at 40 μM which bench marks NTZ at ~50% inhibition."}
{"test_system": "Human foreskin cells", "assay": "Human foreskin cell toxicity", "assay_type": "cell-based", "details": "not given"}
{"smiles": "O=C(Nc1ncc([N+](=O)[O-])s1)c1cc(C(F)(F)F)cc(C(F)(F)F)c1", "note": "[Analogue 38, N-(5-Nitrothiazol-2-yl)-3,5-bis(trifluoromethyl)benzamide]", "toxicity to human foreskin cells (in words)": "particularly toxic"}
{"smiles": "O=C(Nc1ncc([N+](=O)[O-])s1)c1cccc(C(F)(F)F)c1", "note": "[Analogue 23, N-(5-Nitrothiazol-2-yl)-3-(trifluoromethyl)benzamide]", "toxicity to human foreskin cells (in words)": "not toxic"}
{"test_system": "not listed separately", "assay": "Human foreskin cell toxicity", "assay_type": "cell-based", "details": "human, human foreskin cells", "units": {"CC50 at 48 h": "µM"}}
{"smiles": "O=C(Nc1ncc([N+](=O)[O-])s1)c1ccsc1", "note": "[Analogue 74, N-(5-Nitrothiazol-2-yl)thiophene-3-carboxamide]", "CC50 at 48 h": "> 62.7"}
{"smiles": "O=C(Nc1ncc([N+](=O)[O-])s1)c1cc(C(F)(F)F)cc(C(F)(F)F)c1", "note": "[Analogue 38, N-(5-Nitrothiazol-2-yl)-3,5-bis(trifluoromethyl)benzamide]", "CC50 at 48 h": 10.4}
{"smiles": "CC(=O)Oc1ccccc1C(=O)Nc1ncc([N+](=O)[O-])s1", "note": "[Nitazoxanide, reference compound]", "CC50 at 48 h": "> 52.1"}
{"smiles": "O=C(Nc1ncc([N+](=O)[O-])s1)c1ccc(Cl)c(C(F)(F)F)c1", "note": "[Analogue 41, 4-Chloro-N-(5-nitrothiazol-2-yl)-3-(trifluoromethyl)benzamide]", "CC50 at 48 h": "> 45.5"}
{"smiles": "O=C(Nc1ncc([N+](=O)[O-])s1)c1ccco1", "note": "[Analogue 61, N-(5-Nitrothiazol-2-yl)furan-2-carboxamide]", "CC50 at 48 h": 66.9}
{"smiles": "O=C(Nc1ncc([N+](=O)[O-])s1)c1cccc(C(F)(F)F)c1", "note": "[Analogue 23, N-(5-Nitrothiazol-2-yl)-3-(trifluoromethyl)benzamide]", "CC50 at 48 h": "> 50.4"}
{"test_system": "E. coli", "assay": "MIC against E. coli", "assay_type": "cell-based", "details": "Escherichia coli, read-out: E. coli MIC", "units": {"MIC": "µM"}}
{"smiles": "CC(=O)Oc1ccccc1C(=O)Nc1ncc([N+](=O)[O-])s1", "note": "[Nitazoxanide, reference compound]", "MIC": "> 104"}
{"test_system": "E. coli", "assay": "MIC against E. coli", "assay_type": "cell-based", "details": "Escherichia coli, read-out: E. coli MIC, stated in text", "units": {"MIC": "µg/mL"}}
{"smiles": "CC(=O)Oc1ccccc1C(=O)Nc1ncc([N+](=O)[O-])s1", "note": "[Nitazoxanide, reference compound]", "MIC": "> 32"}
{"test_system": "S. epidermidis", "assay": "MIC determination, liquid microdilution, S. epidermidis", "assay_type": "cell-based", "details": "Staphylococcus epidermidis, read-out: MIC S. epidermidis", "units": {"MIC": "µM"}}
{"smiles": "O=C(Nc1ncc([N+](=O)[O-])s1)c1ccsc1", "note": "[Analogue 74, N-(5-Nitrothiazol-2-yl)thiophene-3-carboxamide]", "MIC": 15.7}
{"smiles": "O=C(Nc1ncc([N+](=O)[O-])s1)c1cc(C(F)(F)F)cc(C(F)(F)F)c1", "note": "[Analogue 38, N-(5-Nitrothiazol-2-yl)-3,5-bis(trifluoromethyl)benzamide]", "MIC": 1.9}
{"smiles": "CC(=O)Oc1ccccc1C(=O)Nc1ncc([N+](=O)[O-])s1", "note": "[Nitazoxanide, reference compound]", "MIC": 52.1}
{"smiles": "O=C(Nc1ncc([N+](=O)[O-])s1)c1ccc(Cl)c(C(F)(F)F)c1", "note": "[Analogue 41, 4-Chloro-N-(5-nitrothiazol-2-yl)-3-(trifluoromethyl)benzamide]", "MIC": 2.8}
{"smiles": "O=C(Nc1ncc([N+](=O)[O-])s1)c1ccco1", "note": "[Analogue 61, N-(5-Nitrothiazol-2-yl)furan-2-carboxamide]", "MIC": 66.9}
{"smiles": "O=C(Nc1ncc([N+](=O)[O-])s1)c1cccc(C(F)(F)F)c1", "note": "[Analogue 23, N-(5-Nitrothiazol-2-yl)-3-(trifluoromethyl)benzamide]", "MIC": 12.6}
